Experimental data published in PubChem BioAssay (NCI).
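GI50 is the concentration that inhibits growth by half. At the TGI there is no net growth.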

Key:
Assay in all cases: NCI anticancer screen, dose series, 384-well format
786-0 renal = test system: 786-0 renal
A498 renal = test system: A498 renal
A549 NSCLC = test system: A549 NSCLC
BT-549 breast = test system: BT-549 breast
CAKI-1 renal = test system: CAKI-1 renal
CCRF-CEM leukemia = test system: CCRF-CEM leukemia
COLO 205 colon = test system: COLO 205 colon
DU-145 prostate = test system: DU-145 prostate
EKVX NSCLC = test system: EKVX NSCLC
HCT-15 colon = test system: HCT-15 colon
HL-60(TB) leukemia = test system: HL-60(TB) leukemia
HOP-62 NSCLC = test system: HOP-62 NSCLC
HOP-92 NSCLC = test system: HOP-92 NSCLC
HS 578T breast = test system: HS 578T breast
HT29 colon = test system: HT29 colon
IGROV1 ovarian = test system: IGROV1 ovarian
K-562 leukemia = test system: K-562 leukemia
KM12 colon = test system: KM12 colon
M14 melanoma = test system: M14 melanoma
MALME-3M melanoma = test system: MALME-3M melanoma
MDA-MB-435 melanoma = test system: MDA-MB-435 melanoma
MDA-MB-468 breast = test system: MDA-MB-468 breast
NCI-H226 lung = test system: NCI-H226 lung
NCI-H23 lung = test system: NCI-H23 lung
NCI-H322M lung = test system: NCI-H322M lung
NCI-H460 NSCLC = test system: NCI-H460 NSCLC
NCI-H522 lung = test system: NCI-H522 lung
NCI/ADR-RES ovarian = test system: NCI/ADR-RES ovarian
OVCAR-3 ovarian = test system: OVCAR-3 ovarian
OVCAR-4 ovarian = test system: OVCAR-4 ovarian
OVCAR-8 ovarian = test system: OVCAR-8 ovarian
PC-3 prostate = test system: PC-3 prostate
RPMI-8226 leukemia = test system: RPMI-8226 leukemia
RXF 393 renal = test system: RXF 393 renal
SF-268 CNS = test system: SF-268 CNS
SF-539 CNS = test system: SF-539 CNS
SK-MEL-2 melanoma = test system: SK-MEL-2 melanoma
SK-OV-3 ovarian = test system: SK-OV-3 ovarian
SN12C renal = test system: SN12C renal
SNB-19 CNS = test system: SNB-19 CNS
SNB-75 CNS = test system: SNB-75 CNS
T-47D breast = test system: T-47D breast
TK-10 renal = test system: TK-10 renal
U251 glioblastoma = test system: U251 glioblastoma
UACC-257 melanoma = test system: UACC-257 melanoma
UACC-62 melanoma = test system: UACC-62 melanoma
UO-31 renal = test system: UO-31 renal

Compound C=CCN(/C=C1\C(=O)O[C@H](COC)[C@@]2(C)C1=C(O)C(=O)C1=C2[C@H](OC(C)=O)C[C@]2(C)C(=O)CC[C@@H]12)CC=C has a GI50 ([…]-0 renal) of 4.45 µM, a TGI (786-0 renal) of 28.5 µM and a GI50 (A498 renal) of 0.39 µM. It also gave a TGI (A498 renal) of 5.3 µM, a GI50 (A549 NSCLC) of 1.11 µM and a TGI (A549 NSCLC) of 27.6 µM. For the same compound, the GI50 (BT-549 breast) was 0.553 µM, the TGI (BT-549 breast) was 9.02 µM and the GI50 (CAKI-1 renal) was 2.75 µM. For the same compound, the TGI (CAKI-1 renal) was greater than 100 µM, the GI50 (CCRF-CEM leukemia) was 0.723 µM and the TGI (CCRF-CEM leukemia) was 4.53 µM. For the same compound, the GI50 (COLO 205 colon) was 0.793 µM, the TGI (COLO 205 colon) was 4.64 µM and the GI50 (DU-145 prostate) was 4.41 µM. For the same compound, the TGI (DU-145 prostate) was 59.7 µM, the GI50 (EKVX NSCLC) was 0.504 µM and the TGI (EKVX NSCLC) was 13.6 µM. For the same compound, the GI50 (HCT-15 colon) was 2.98 µM, the TGI (HCT-15 colon) was 97.2 µM and the GI50 (HL-60(TB) leukemia) was 0.156 µM. The TGI (HL-60(TB) leukemia) was 0.983 µM, the GI50 (HOP-62 NSCLC) was 10.3 µM and the TGI (HOP-62 NSCLC) was greater than 100 µM. It also gave a GI50 (HOP-92 NSCLC) of 2.47 µM, a TGI (HOP-92 NSCLC) of 37.6 µM and a GI50 (HS 578T breast) of 1.15 µM. The TGI (HS 578T breast) was 6.93 µM, the GI50 (HT29 colon) was 1.08 µM and the TGI (HT29 colon) was 21.7 µM. The GI50 (IGROV1 ovarian) was 0.406 µM, the TGI (IGROV1 ovarian) was 5.26 µM and the GI50 (K-562 leukemia) was 17.6 µM. For the same compound, the TGI (K-562 leukemia) was greater than 100 µM, the GI50 (KM12 colon) was 2.66 µM and the TGI (KM12 colon) was 96.3 µM. It also gave a GI50 (M14 melanoma) of 2.82 µM, a TGI (M14 melanoma) of 30.5 µM and a GI50 (MALME-3M melanoma) of 0.677 µM. The TGI (MALME-3M melanoma) was 12.2 µM, the GI50 (MDA-MB-435 melanoma) was 8.15 µM and the TGI (MDA-MB-435 melanoma) was 38.1 µM. It also gave a GI50 (MDA-MB-468 breast) of 0.0764 µM, a TGI (MDA-MB-468 breast) of 2.09 µM and a GI50 (NCI-H226 lung) of 2.76 µM. For the same compound, the TGI (NCI-H226 lung) was 56.7 µM, the GI50 (NCI-H23 lung) was 4.35 µM and the TGI (NCI-H23 lung) was 33.8 µM. For the same compound, the GI50 (NCI-H322M lung) was 1.21 µM, the TGI (NCI-H322M lung) was 23.3 µM and the GI50 (NCI-H460 NSCLC) was 0.668 µM. For the same compound, the TGI (NCI-H460 NSCLC) was 90.1 µM, the GI50 (NCI-H522 lung) was 2.08 µM and the TGI (NCI-H522 lung) was 14.4 µM. It also gave a GI50 (NCI/ADR-RES ovarian) of 8.83 µM, a TGI (NCI/ADR-RES ovarian) greater than 100 µM and a GI50 (OVCAR-3 ovarian) of 1.16 µM. For the same compound, the TGI (OVCAR-3 ovarian) was 12.2 µM, the GI50 (OVCAR-4 ovarian) was 0.787 µM and the TGI (OVCAR-4 ovarian) was 33.5 µM. For the same compound, the GI50 (OVCAR-8 ovarian) was 3.85 µM, the TGI (OVCAR-8 ovarian) was greater than 100 µM and the GI50 (PC-3 prostate) was 0.648 µM. It also gave a TGI (PC-3 prostate) of 18 µM, a GI50 (RPMI-8226 leukemia) of 0.657 µM and a TGI (RPMI-8226 leukemia) of 3.16 µM. The GI50 (RXF 393 renal) was 0.0828 µM, the TGI (RXF 393 renal) was 0.65 µM and the GI50 (SF-268 CNS) was 1.82 µM. The TGI (SF-268 CNS) was 19.9 µM, the GI50 (SF-539 CNS) was 7.45 µM and the TGI (SF-539 CNS) was greater than 100 µM. The GI50 (SK-MEL-2 melanoma) was 2.36 µM, the TGI (SK-MEL-2 melanoma) was 12.3 µM and the GI50 (SK-OV-3 ovarian) was 0.68 µM. It also gave a TGI (SK-OV-3 ovarian) of 15.3 µM, a GI50 (SN12C renal) of 2.08 µM and a TGI (SN12C renal) greater than 100 µM. It also gave a GI50 (SNB-19 CNS) of 13.7 µM, a TGI (SNB-19 CNS) greater than 100 µM and a GI50 (SNB-75 CNS) of 1.57 µM. The TGI (SNB-75 CNS) was 10.1 µM, the GI50 (T-47D breast) was 0.724 µM and the TGI (T-47D breast) was 10.2 µM. The GI50 (TK-10 renal) was 1.19 µM, the TGI (TK-10 renal) was 15.2 µM and the GI50 (U251 glioblastoma) was 13 µM. The TGI (U251 glioblastoma) was 82.7 µM, the GI50 (UACC-257 melanoma) was 4.01 µM and the TGI (UACC-257 melanoma) was 43.9 µM. It also gave a GI50 (UACC-62 melanoma) of 0.89 µM, a TGI (UACC-62 melanoma) of 8.77 µM and a GI50 (UO-31 renal) of 2.81 µM. It also gave a TGI (UO-31 renal) greater than 100 µM.
